Where two headings read alike, the source gives them in different places.
How the values were obtained:
[1] = tested on: spleen; assay: In vivo mRNA delivery, IVIS imaging of organs: spleen; design: species or system mice; key to Organs with luminescence: spleen: strong: Strong meant the luminescence intensity in that organ was relatively high, compared to other organs; weak: Weak meant the luminescence intensity in that organ was relatively low, compared to other organs; conditions: for Organs with luminescence: spleen (weak/strong): Table 14; for Organs with luminescence: spleen: Table 17, mice, IVIS, 4-6 h after injection, intensity relative to other organs
[2] = Table 16, IAJDs marked a (Zhang et al., J. Am. Chem. Soc. 2021); IAJD 4 mg/mL, Luc-mRNA 0.10 mg/mL, acetate buffer 10 mM pH 4.0; cited from earlier work
[3] = tested on: liver; assay: In vivo mRNA delivery, IVIS imaging of organs: liver; design: species or system mice; key to Organs with luminescence: liver: strong: Strong meant the luminescence intensity in that organ was relatively high, compared to other organs; weak: Weak meant the luminescence intensity in that organ was relatively low, compared to other organs; conditions: for Organs with luminescence: liver (weak/strong): Table 14; for Organs with luminescence: liver: Table 17, mice, IVIS, 4-6 h after injection, intensity relative to other organs
[4] = tested on: BALB/c mice; conditions: cited from earlier work
[5] = pKa measurements of individual IAJD molecules by titration; type: physicochemical; conditions: ethanol saturated with NaCl, titrated with 0.1 M aqueous HCl; Table 15; individual IAJD molecule, titration
Summary of the method: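 Compound dissolved at 1.5 mg/mL in NaCl-saturated ethanol and titrated with 0.1 M HCl in 7.5 μL steps, pH read by electrode after each addition. pKa taken from the half-equivalence point.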

[6] = Dimensions (size, PDI) of DNPs co-assembled from IAJDs and Luc-mRNA by DLS; type: physicochemical
Summary of the method: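 IAJDs (80 mg/mL ethanol stock) rapidly injected into Luc-mRNA (4.0 mg/mL stock) diluted in 10 mM acetate buffer pH 4.0, then vortexed 5 s. Size and polydispersity of resulting DNPs measured by DLS (633 nm laser, 175° detection) at 23 °C.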

[7] = Table 12, DNPs, IAJD 4 mg/mL + Luc-mRNA 0.10 mg/mL, acetate buffer 10 mM pH 4.0
[8] = Table 13, DNPs, IAJD 4 mg/mL + Luc-mRNA 0.10 mg/mL, acetate buffer pH 4.0
[9] = Table 14, DNPs, IAJD 4 mg/mL + Luc-mRNA 0.10 mg/mL, acetate buffer pH 4.0
[10] = Table 17, DNPs used in vivo, IAJD 4 mg/mL, Luc-mRNA 0.10 mg/mL, acetate pH 4.0

Structure (SMILES)	Organs with luminescence: spleen (weak/strong) ([1]; imaging 5 h after injection)	Organs with luminescence: spleen [1]	PDI [2]	Size (d, nm) [2] [nm]	Organs with luminescence: liver (weak/strong) ([3]; imaging 5 h after injection)	Organs with luminescence: liver [3]	In vivo activity (total flux, p/s) ([4]; Table 18, symmetric IAJDs, results available in the literature)	In vivo activity (total flux, p/s) ([4]; Table 20, corresponding symmetric IAJDs (literature per Table 18))	pKa [5]	PDI [6, 7]	Size (d, nm) [6, 7] [nm]	PDI [6, 8]	Size (d, nm) [6, 8] [nm]	PDI [6, 9]	Size (d, nm) [6, 9] [nm]	PDI [6, 10]	Size (d, nm) [6, 10] [nm]	Organs with luminescence: spleen (weak/strong) ([1]; imaging 6 h after injection)	Organs with luminescence: liver (weak/strong) ([3]; imaging 6 h after injection)
CCCCCCCCCCCCOc1cc(COC(=O)CCCN2CCN(CCO)CC2)cc(OCCCCCCCCCCCC)c1 [IAJD 71, 3,5-Bis(dodecyloxy)benzyl 4-(4-(2-hydroxyethyl)piperazin-1-yl)butanoate]	spleen (strong)	spleen (strong)	0.451	237	liver (weak),	liver (weak),	3.79 × 10^7 p/s	3.79 × 10^7 p/s	6.38	0.451	237	0.451	237	0.451	237	0.451	237		
CCCCCCCCCCCCCCCCOc1cc(COC(=O)CCCN2CCN(C)CC2)cc(OCCCCCCCCCCCC)c1 [IAJD 106, 3-(Dodecyloxy)-5-(hexadecyloxy)benzyl 4-(4-methylpiperazin-1-yl)butanoate]		spleen (strong)	0.275	105		liver (weak),			6.38	0.275	105	0.275	105	0.275	105	0.275	105	spleen (strong)	liver (weak),
CCCCCCCCCCCCCCCCCCOc1cc(COC(=O)CCCN2CCN(C)CC2)cc(OCCCCCCCCCCCC)c1 [IAJD 107, 3-(Dodecyloxy)-5-(octadecyloxy)benzyl 4-(4-methylpiperazin-1-yl)butanoate]		spleen (strong)	0.279	146		liver (weak),			6.42	0.279	146	0.279	146	0.279	146	0.279	146	spleen (strong)	liver (weak),

Reference: patent US20240252677A1, “ONE-COMPONENT DELIVERY SYSTEM FOR NUCLEIC ACIDS” (The Trustees of the University of Pennsylvania, priority 2021, published 2024)
